Format in all cases: functional
For experiment [1], the species on record is Mus musculus. Kind of experiment: Tested for its ability to eliminate the infective trypomastigote form of Trypanosoma cruzi, Y strain present in blood of infected mice at the dose of 0.21 mM.
Experiment [2] is filed under the species Mus musculus. Kind of experiment: Tested for its ability to eliminate the infective trypomastigote form of Trypanosoma cruzi, Y strain present in blood of infected mice at the dose of 0.22 mM.
The species entered for experiment [3] is Mus musculus. Kind of experiment: Tested for its ability to eliminate the infective trypomastigote form of Trypanosoma cruzi, Y strain present in blood of infected mice at the dose of 0.20 mM.
The species named for experiment [4] is Mus musculus. Kind of experiment: Tested for its ability to eliminate the infective trypomastigote form of Trypanosoma cruzi, Y strain present in blood of infected mice at the dose of 0.18 mM.
Experiment [5] is filed under the species Mus musculus. Kind of experiment: Tested for its ability to eliminate the infective trypomastigote form of Trypanosoma cruzi, Y strain present in blood of infected mice at the dose of 0.50 mM.
The species named for experiment [6] is Mus musculus. Kind of experiment: Tested for its ability to eliminate the infective trypomastigote form of Trypanosoma cruzi, Y strain present in blood of infected mice at the dose of 0.19 mM.
Experiment [7] is filed under the species Mus musculus. Kind of experiment: Tested for its ability to eliminate the infective trypomastigote form of Trypanosoma cruzi, Y strain present in blood of infected mice at the dose of 0.24 mM.
For experiment [8], the species on record is Mus musculus. Kind of experiment: Tested for its ability to eliminate the infective trypomastigote form of Trypanosoma cruzi, Y strain present in blood of infected mice at the dose of 0.25 mM.
The species entered for experiment [9] is Mus musculus. Kind of experiment: Tested for its ability to eliminate the infective trypomastigote form of Trypanosoma cruzi, Y strain present in blood of infected mice at the dose of 0.12 mM.
Experiment [10] is filed under the species Mus musculus. Kind of experiment: Tested for its ability to eliminate the infective trypomastigote form of Trypanosoma cruzi, Y strain present in blood of infected mice at the dose of 0.29 mM.
For experiment [11], the species on record is Mus musculus. Kind of experiment: Tested for its ability to eliminate the infective trypomastigote form of Trypanosoma cruzi, Y strain present in blood of infected mice at the dose of 0.23 mM.

We go through 22 compounds from ChEMBL document CHEMBL1130355, “Trypanocidal activity and redox potential of heterocyclic- and 2-hydroxy-naphthoquinones” (1997).

The compound `CC(C)c1cc2c(o1)C(=O)c1ccccc1C2=O` gave a Lysis in [1] of 88%.
The compound `CC/C=C/C1=C(O)C(=O)c2ccccc2C1=O` returned a Lysis in [2] of 68%.
Turning to `COc1cccc2c1C(=O)c1ccsc1C2=O`, in experiment [3], the Lysis stood at 0%.
`COc1ccc2c(c1OC)C(=O)c1sccc1C2=O` had a Lysis in experiment [4] of 19%.
The compound `O=C1C(=O)c2ccoc2-c2ccccc21` came in with a Lysis in [5] of 100%.
Regarding `COc1cccc2c1C(=O)c1sccc1C2=O`, the Lysis in [3] amounted to 26%.
Consider `COc1cccc2c1C(=O)c1ccoc1C2=O`, for which, in experiment [2], the Lysis amounted to 52%.
In [6], `O=C1c2ccccc2C(=O)c2sc([N+](=O)[O-])cc21` yielded a Lysis of 54%.
`Cc1cc2c(o1)C(=O)c1ccccc1C2=O`: the Lysis in experiment [7] is given as 18%.
`CCc1cc2c(o1)C(=O)c1ccccc1C2=O`: in experiment [2], the Lysis is listed as 24%.
Compound `O=C1c2ccccc2C(=O)c2occc21` registered a Lysis in [8] of 33%.
`CC(C)/C=C/C1=C(O)C(=O)c2ccccc2C1=O` gave a Lysis in experiment [1] of 81%.
As to `CCc1cc2c(o1)-c1ccccc1C(=O)C2=O`, the Lysis in experiment [2] turned out to be 94%.
In [3], `COc1ccc2c(c1)C(=O)c1ccsc1C2=O` returned a Lysis of 9%.
For the compound `COc1cc(OC)c2c(c1)C(=O)c1sccc1C2=O`, in experiment [4], the Lysis is given as 19%.
In the case of `CC(C)c1cc2c(o1)-c1ccccc1C(=O)C2=O`, the Lysis in [1] came to 94%.
`CC1(C)CCC2=C(O1)C(=O)c1ccccc1C2=O` [ALPHA-LAPACHONE]: the Lysis in [1] is 48%.
For `CN(C)c1ccc(C(=C2C=CC(=[N+](C)C)C=C2)c2ccc(N(C)C)cc2)cc1.[Cl-]` [GENTIAN VIOLET], in experiment [9], the Lysis worked out at 100%.
`CC(C)=CCC1=C(O)C(=O)c2ccccc2C1=O` [LAPACHOL] yielded a Lysis in experiment [1] of 65%.
The same measure, in the same setting: for `CC1(C)CCC2=C(O1)c1ccccc1C(=O)C2=O` [LAPACHONE] the value was 76%.
For `O=C1C=C(O)C(=O)c2ccccc21` [LAWSONE], the Lysis in experiment [10] stood at 76%.
In experiment [11], `O=C1c2ccccc2C(=O)c2sccc21` [THIOPHENONAPHTHOQUINONE] gave a Lysis of 13%.
